Measurements reported in patent publication US8809341B2, “2,4-pyrimidinediamine compounds and uses as anti-proliferative agents” (Rigel Pharmaceuticals, Inc., priority 2003, dated 2014).
Values belong to the compound of their own block, whether it stands above or below them.

Legend:
[1] = tested on: A549 cells; experiment: in vitro antiproliferation assay, A549 (lung); type: cell-based
Outline: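 Standard in vitro antiproliferation assays on tumour cell lines, including A549 and H1299 (both lung); IC50 values determined.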

[2] = tested on: H1299 cells; experiment: in vitro antiproliferation assay, H1299 (lung); type: cell-based
Procedure: The IC50 values of various compounds against a various different tumor cell lines were determined using standard in vitro antiproliferation assays. The tumor cell lines tested were as follows: A549 (lung); H1299 (lung), ACHN (kidney/p53 wt), CAKI (renal cell carcinoma), NCI-H460 (lung); HCT116 (colon/p53w0; HELA (cervix/p53 wt), HUH7 (liver/p53 wt), HUVEC (primary endothelial), LNCAP (prostate), HT-29 (colon); MCF-7 (breast); MCF-7 (breast/ER positive), MDA MB435S (breast); MDA MB231 (breast/ER negative), DU145 (prostate); BxPC-3 (pancreatic); SKOV-3 (ovarian); HepG2 (hepatic), NDHF primary normal human dermal fibroblast), SKMEL28 (breast/p53mut), SKMEL5 (breast/p53 wt), U20S (bone) and PC3 (prostate). […] A blank indicates the specified compound was not tested against the specified cell line.

[3] = Table 5, in vitro antiproliferation, A549 (lung) cells
[4] = Table 5, in vitro antiproliferation, H1299 (lung) cells
[5] = IC50 class against A549 (lung) tumor cells
[6] = IC50 class against H1299 (lung) tumor cells
[7] = Homo sapiens, A549 (lung) cells
[8] = Homo sapiens, NCI-H1299, H1299 (lung) cells
[9] = A549 (lung) cells, antiproliferation
[10] = H1299 (lung) cells, antiproliferation
[11] = Homo sapiens, IC50 class against A549 (lung) tumor cells
[12] = Homo sapiens, NCI-H1299, IC50 class against H1299 (lung) tumor cells

IC50 ([1]; in vitro antiproliferation, A549 (lung) cells, Table 4, compounds with no designated stereochemistry tested as racemate): ≤ 20 µM | IC50 ([2]; in vitro antiproliferation, H1299 (lung) cells, Table 4, compounds with no designated stereochemistry tested as racemate): ≤ 20 µM
Compound: COc1ccc(Nc2ncc(F)c(Nc3ccc4c(c3)NC(=O)C(C)(C)S4)n2)cc1F [compound 289]

IC50 [1, 3]: ≤ 20 µM | IC50 [2, 4]: ≤ 20 µM
Compound: CC(=O)N1CCN(c2cccc(Nc3ncc(F)c(Nc4ccc5c(c4)OCCO5)n3)c2)CC1 [compound 550]

IC50 [1, 5]: ≤ 20 µM | IC50 [2, 6]: ≤ 20 µM
Compound: Cc1cc(Nc2ncc(F)c(NC3CC(C)(C)N(C)C(C)(C)C3)n2)cnc1N1CCN(C)CC1 [compound 184]

IC50 ([1]; A549 (lung) cells): > 20 µM | IC50 ([2]; H1299 (lung) cells): ≤ 20 µM
Compound: COc1cc(Nc2nc(Nc3ccc4cnn(C(C)(C)CC5CCCCC5)c4c3)ncc2F)ccc1F [compound 1097]

IC50 [1, 5]: ≤ 20 µM | IC50 [2, 6]: ≤ 20 µM
Compound: COc1c(C)cc(Nc2ncc(F)c(Nc3ccc4c(c3)NCC(C)(C)O4)n2)cc1Cl [compound 597]

IC50 [1, 5]: ≤ 20 µM | IC50 [2, 6]: ≤ 20 µM
Compound: CN1CCN(c2ccc(Nc3ncc(F)c(NC(C)(C)C)n3)cc2Cl)CC1 [compound 222]

IC50 [1, 3]: ≤ 20 µM | IC50 [2, 4]: ≤ 20 µM
Compound: CC(=O)N1CCN(c2ccc(Nc3ncc(F)c(Nc4ccc5c(c4)OC(F)(F)C(F)(F)O5)n3)cc2)CC1 [compound 553]

IC50 [1, 7]: ≤ 20 µM | IC50 [2, 8]: ≤ 20 µM
Compound: COc1cc(C(N)=O)c(Nc2ncc(F)c(NC3CCCC3)n2)cc1OC(=O)c1ccccc1 [compound 1163]

IC50 [1, 9]: > 20 µM | IC50 [2, 10]: > 20 µM
Compound: Cc1cc(C)cc(Nc2nc(Nc3cc(C)c(Cl)c(C)c3)ncc2F)c1 [compound 900]

IC50 [1, 9]: > 20 µM | IC50 [2, 10]: > 20 µM
Compound: COc1ccc(N(C)c2nc(Nc3cc(C)c(OC)c(Cl)c3)ncc2F)cc1Cl [compound 904]

IC50 ([1]; Table 7, in vitro antiproliferation, A549 (lung) cells): ≤ 20 µM | IC50 ([2]; Table 7, in vitro antiproliferation, H1299 (lung) cells): ≤ 20 µM
Compound: CNC(=O)c1cc2cccc(Nc3ncc(F)c(Nc4ccc(OC)c(OC)c4)n3)c2[nH]1 [compound 665]

IC50 [1, 11]: ≤ 20 µM | IC50 [2, 12]: ≤ 20 µM
Compound: Fc1cnc(Nc2cccc(N3CCOCC3)c2)nc1Nc1cc(C2CC2)[nH]n1 [compound 207]

IC50 [1, 3]: ≤ 20 µM | IC50 [2, 4]: ≤ 20 µM
Compound: COc1cc(Nc2ncc(F)c(Nc3ccc4c(c3)OCO4)n2)cc(C(F)(F)F)c1 [compound 541]

IC50 [1, 7]: ≤ 20 µM | IC50 [2, 8]: ≤ 20 µM
Compound: COc1ccc(Nc2nc(Nc3cc(OC)c(Cl)cc3OC)ncc2F)cc1Cl [compound 1158]

IC50 [1, 11]: ≤ 20 µM | IC50 [2, 12]: ≤ 20 µM
Compound: COc1cc(Nc2ncc(F)c(Nc3cccc(Nc4ncc[nH]4)c3)n2)cc(OC)c1 [compound 1053]

IC50 [1, 9]: ≤ 20 µM | IC50 [2, 10]: ≤ 20 µM
Compound: Cc1cc(C)cc(Nc2nc(Nc3cc(C)c(Cl)c(Cl)c3)ncc2F)c1 [compound 896]

IC50 ([1]; A549 (lung) cells): > 20 µM | IC50 ([2]; H1299 (lung) cells): ≤ 20 µM
Compound: COc1ccc(Nc2nc(Nc3ccc4c(cnn4C(C)(C)CC4CCC4)c3)ncc2F)cc1Cl [compound 1098]

IC50 [1, 5]: ≤ 20 µM | IC50 [2, 6]: ≤ 20 µM
Compound: CN1CCN(c2ccc(Nc3ncc(F)c(Nc4ccc5c(n4)NCCO5)n3)cc2)CC1 [compound 608]

IC50 [1, 3]: ≤ 20 µM | IC50 [2, 4]: ≤ 20 µM
Compound: Fc1cnc(Nc2cccc(-c3ncco3)c2)nc1Nc1ccc2c(c1)OCCO2 [compound 515]

IC50 [1, 5]: ≤ 20 µM | IC50 [2, 6]: ≤ 20 µM
Compound: CC(=O)N1CCN(c2cccc(Nc3ncc(F)c(NC4CCCC4)n3)c2)CC1 [compound 136]

IC50 [1, 5]: ≤ 20 µM | IC50 [2, 6]: ≤ 20 µM
Compound: COC(=O)CNC(=O)c1ccc(Nc2ncc(F)c(NC3CCCC3)n2)cc1 [compound 177]

IC50 [1, 9]: > 20 µM | IC50 [2, 10]: > 20 µM
Compound: CNC(=O)COc1cccc(Nc2ncc(F)c(N(C)c3ccc(OC)c(OC)c3)n2)c1 [compound 870]

IC50 [1, 5]: ≤ 20 µM | IC50 [2, 6]: ≤ 20 µM
Compound: CN1CCN(c2ccc(Nc3ncc(F)c(NC4CCCCC4)n3)cc2)CC1 [compound 155]

IC50 ([1]; A549 (lung) cells, in vitro antiproliferation): ≤ 20 µM | IC50 ([2]; H1299 (lung) cells, in vitro antiproliferation): ≤ 20 µM
Compound: COc1cc(Nc2nc(Nc3cc(Cl)cc(Cl)c3)ncc2F)cc(C(F)(F)F)c1 [compound 823]

IC50 [1, 5]: ≤ 20 µM | IC50 [2, 6]: ≤ 20 µM
Compound: Cc1cc(Nc2ncc(F)c(NC3CCC3)n2)ccc1N1CCN(C)CC1 [compound 166]

IC50 [1, 3]: ≤ 20 µM | IC50 [2, 4]: ≤ 20 µM
Compound: Fc1cnc(Nc2cccc(-c3ncco3)c2)nc1Nc1ccc2c(c1)OC(F)(F)C(F)(F)O2 [compound 571]

IC50 [1, 5]: > 20 µM | IC50 [2, 6]: ≤ 20 µM
Compound: CCOC(=O)N1CCN(c2ccc(Nc3ncc(F)c(Nc4ccc5c(n4)NCCO5)n3)cc2)CC1 [compound 604]

IC50 [1, 5]: ≤ 20 µM | IC50 [2, 6]: ≤ 20 µM
Compound: Cc1ccc(F)c(Nc2ncc(F)c(Nc3ccc4c(c3)OCCO4)n2)c1 [compound 1048]

IC50 [1, 5]: ≤ 20 µM | IC50 [2, 6]: ≤ 20 µM
Compound: CN1CCN(c2ccc(Nc3ncc(F)c(NC(C)(C)C)n3)cc2C(F)(F)F)CC1 [compound 224]
